The subject of assay [1] is E. coli. The procedure: To evaluate the QolorAST performance in clinical settings, a double-blinded clinical study at the McGill University Health Center (MUHC) was performed. 47 patients suspected of urinary tract infections, admitted to MUHC emergency clinics between August 2022 to August 2023 were tested. Specimens were consented, collected from the patients and the experiments were done in microbiology labs in MUHC. Each specimen were divided in 3 to be tested in parallel in the central laboratory of the hospital (quantification, identification and MIC), in the research laboratory (quantification, identification and MIC for 2 antibiotics) and with QolorAST genotypic/phenotypic assays in microbiology lab at MUHC. The device has 24 chambers where the media/resazurin/antibiotic mixes as well as the patient samples are injected mixed. […] Therefore, reagent loading port was preloaded with media, specific concentration antibiotic and resazurin at final concentration of 0.25 mg/mL and urine was added to urine loading port. Thereafter, by pressing the pushing button the urine was mixed with the rest of solution at a volumetric ratio of 1:4 which would be the starting point for incubation and imaging of the samples. The samples were incubated at 37° C. at different timepoints starting from 0 to 60 minutes with a time interval of 10 minutes and the imaging was performed as described above.

Assay [2] has as its system E. coli. As to the kind of experiment: Standard broth microdilution MIC on isolates from patient urine specimens. The class given is cell-based, Escherichia coli. The procedure: For the standard testing the urine specimens were diluted 1/1000 using CamHB and both the original concentration and a 1/1000 dilution of the specimen were plated on BAP with a 1 μL calibrated loop and incubated for 18-20h at 37 C with 5% CO2. The […] concentration is then calculated for all the isolates coming from each specimen. […] At the end of the process, the inoculum quantification is checked by counted CFU from serial dilutions of the inoculum. A growth positive control (inoculum with no antibiotic), a wild type strain of E. Coli (MG1655) and E. Faecalis are also included and processed in the same way as the isolates for each experiment. Finally, each isolate is plated on BAP to control their monoculture state and to be identified by MALDI.
Samples were tested in parallel using two methods: conventional (Matrix-assisted laser desorption/ionization-time of flight—MALDI/TOF—for bacterial identification and CLSI BMD method for AST) and QolorAST (genotypic for bacterial ID and phenotypic AST). […] Subsequently, we used the images of negative, fastidious, and not fastidious samples to establish a new training for the SVM to classify the specimens into no growth (negative) and growth (positive) classes. We implemented a detection time of 30 mins and a cutoff threshold of 0.6 to differentiate between positive and negative specimens (FIG. 34G).
A general note: In broth dilution the organism is exposed to a series of concentrations in liquid medium.

The test system of assay [3] is MRSA. As to the kind of experiment: QolorAST minimum inhibitory concentration (MIC) test. The class given is cell-based, Staphylococcus aureus. Here is the method: Ampicillin-resistant E. coli strain mm294 was cultured overnight at 37° C. in Luria broth (LB) media supplemented with 100 μg/mL Ampicillin. […] Next, the bacterial concentration was determined by optical density technique using a Spectronic 21D spectrophotometer. Subsequently, aliquots of different concentrations were prepared for the antibiotic susceptibility testing experiments in LB media. Biotyper spectra (MALDI Bruker).
5×10^5 CFU ml^−1 Oxacillin-resistant S. aureus aliquots were prepared using resazurin/oxacillin solution using different concentrations of oxacillin antibiotic (16 μg/mL, 32 μg/mL, and 64 μg/mL). 5×10^5 CFU ml^−1 Cipro.
A minimum inhibitory concentration (MIC) was performed to study the QolorAST broad applicability in detecting bacterial resistance profiles and ensuring timely and efficient antimicrobial theraby. […] The antibiotics cover major bacterial inhibition mechanisms as inhibition of protein synthesis, cell wall synthesis, and/or DNA synthesis.
QolorAST exploited two methodologies: Manual MIC (MA-MIC) and support vector machine MIC (SVM-MIC). […] The SVM-MIC was carried out with a rbf kernel that was optimized and trained to predict the color change of the preclinical images using our library of bacteria images collected under different conditions including images where color is changed, color transitioning, and no color change. The SVM successfully classified the condition's bacteria-antibiotic in the concentration range studied.

Assay [4] deals with MRSA. The experiment in a line: Phenotypic QolorAST rapid AST (resazurin reduction). The class given is cell-based, Staphylococcus aureus. As to conditions: 10^5 cfu/mL MRSA, antibiotic concentrations, 0-60 min. The procedure: (§1) Resistant E. coli, Oxacillin-resistant S. aureus, and Cipro. Resistant PA respectively was used. The aliquots were incubated at 37° C. different periods starting from 0 minutes incubation till 60 minutes with a time step of 5 minutes.
(§2) Resistant PA respectively was used. The aliquots were incubated at 37° C. different periods starting from 0 minutes incubation until 60 minutes with a time step of 5 minutes.
(§3) MRSA and PA respectively.
Background: The colour change of resazurin is a common sign of viable cells or microbes.

The subject of another assay is Pseudomonas aeruginosa. The assay is described as above. As to conditions: 10^5 cfu/mL PA, antibiotic concentrations, 0-60 min. Format: cell-based. The procedure: as §1, §2, §3
A further assay concerns E coli MG1655. As to conditions: E coli MG1655 spiked in urine. Here is the method: To obtain spiked human samples, first human urine was centrifuged at 5000 rcf for 5 minutes to remove large particles. It was subsequently spiked with 5×10^5 CFU ml^−1 and mixed with a solution of Resazurin to a final concentration of 0.02%. No antibiotics were added for the control aliquots, 32 μg/mL Ampicillin was added for resistant aliquots and 16 μg/mL Kanamycin was added for susceptible aliquots. The aliquots were incubated at 37° C. different periods starting from 0 minutes incubation till 60 minutes with a time step of 5 minutes.
According to the Infectious Diseases Society of America (IDSA), 105 CFU ml^−1 and 102 CFU ml^−1 were spiked in-vivo in urine, serum, and nasal swab of donors to simulate urinary tract infection, wound infection, and pneumonia by MRSA, respectively. Human urine was spiked with different concentrations of E. coli (FIG. 32D). As a control the healthy human biofluids were screened as received.

Like-named read-outs stand apart in the source and are kept apart here.

As to `O=C1CN(/N=C/c2ccc([N+](=O)[O-])o2)C(=O)N1` [Nitrofurantoin], the “QolorAST MIC Manual (MA-MIC)” value with E. coli [1] (Patient # 49, urine specimen) was 8; in the assay on E. coli [1] (Patient # 50, urine specimen) it was 8; with E. coli [1] (Patient # 51*, urine specimen), less than 0.25; with E. coli [1] (Patient # 52, urine specimen), 16; in the assay on E. coli [1] (Patient # 53, urine specimen), 4; with E. coli [1] (Patient # 54, urine specimen) it was 4. Moreover, the “QolorAST MIC Manual (MA-MIC)” value in the assay on E. coli [1] (Patient # 55, urine specimen) came to 8; in the assay with E. coli [1] (Patient # 56, urine specimen), 8; with E. coli [1] (Patient # 57, urine specimen), 8; with E. coli [1] (Patient # 58, urine specimen), 8; with E. coli [1] (Patient # 59, urine specimen) it was 16; with E. coli [1] (Patient # 60, urine specimen), 4. For the same compound, the “QolorAST MIC Manual (MA-MIC)” value with E. coli [1] (Patient # 61, urine specimen) stood at 4; in the assay on E. coli [1] (Patient # 62, urine specimen), 6; with E. coli [1] (Patient # 63, urine specimen), 4; with E. coli [1] (Patient # 64, urine specimen) it was 8; in the assay with E. coli [1] (Patient # 65, urine specimen) it was 8; with E. coli [1] (Patient # 66, urine specimen), 8. The “QolorAST MIC Manual (MA-MIC)” value is less than 0.25 in the assay on E. coli [1] (Patient # 67*, urine specimen) and 8 with E. coli [1] (Patient # 68, urine specimen). The “QolorAST MIC SVM (SVM-MIC)” value in the assay on E. coli [1] (Patient # 49, urine specimen) is 8; with E. coli [1] (Patient # 50, urine specimen), 8; with E. coli [1] (Patient # 51*, urine specimen), less than 0.25; with E. coli [1] (Patient # 52, urine specimen) it was 16; in the assay on E. coli [1] (Patient # 53, urine specimen), 4; in the assay on E. coli [1] (Patient # 54, urine specimen), 4. The “QolorAST MIC SVM (SVM-MIC)” value in the assay on E. coli [1] (Patient # 55, urine specimen) is given as 8; in the assay on E. coli [1] (Patient # 56, urine specimen) it was 8; in the assay with E. coli [1] (Patient # 57, urine specimen), 8; with E. coli [1] (Patient # 58, urine specimen), 8; with E. coli [1] (Patient # 59, urine specimen) it was 16; with E. coli [1] (Patient # 60, urine specimen) it was 4. Further, the “QolorAST MIC SVM (SVM-MIC)” value turned out to be 4 in the assay on E. coli [1] (Patient # 61, urine specimen); 6 in the assay on E. coli [1] (Patient # 62, urine specimen); 4 in the assay with E. coli [1] (Patient # 63, urine specimen); 8 in the assay on E. coli [1] (Patient # 64, urine specimen); 8 with E. coli [1] (Patient # 65, urine specimen); 8 with E. coli [1] (Patient # 66, urine specimen). Also, the “QolorAST MIC SVM (SVM-MIC)” value is given as less than 0.25 in the assay with E. coli [1] (Patient # 67*, urine specimen) and 8 in the assay with E. coli [1] (Patient # 68, urine specimen). Moreover, the “Broth Microdilution MIC (MIC)” value in the assay on E. coli [2] (Patient # 49, E. coli) was 8; in the assay with E. coli [2] (Patient # 50, E. coli), 8; in the assay on E. coli [2] (Patient # 51*, E. coli) it was 16; in the assay with E. coli [2] (Patient # 52, E. coli), 16; in the assay on E. coli [2] (Patient # 53, E. coli), 6; in the assay on E. coli [2] (Patient # 54, E. coli) it was 4. Also, the “Broth Microdilution MIC (MIC)” value in the assay on E. coli [2] (Patient # 55, E. coli) was 8; in the assay with E. coli [2] (Patient # 56, E. coli), 8; with E. coli [2] (Patient # 57, E. coli), 8; in the assay on E. coli [2] (Patient # 58, E. coli), 8; with E. coli [2] (Patient # 59, E. coli) it was 16; with E. coli [2] (Patient # 60, E. coli), 16. Moreover, the “Broth Microdilution MIC (MIC)” value with E. coli [2] (Patient # 61, E. coli) came out at 4; in the assay with E. coli [2] (Patient # 62, E. coli), 6; with E. coli [2] (Patient # 63, E. coli), 4; in the assay on E. coli [2] (Patient # 64, E. coli), 8; with E. coli [2] (Patient # 65, E. coli), 8; in the assay with E. coli [2] (Patient # 66, E. coli) it was 8. In addition, the “Broth Microdilution MIC (MIC)” value in the assay with E. coli [2] (Patient # 67*, E. coli) was found to be 2; with E. coli [2] (Patient # 68, E. coli) it was 8.

Turning to `O=C(O)c1cn(C2CC2)c2cc(N3CCNCC3)c(F)cc2c1=O` [Ciprofloxacin], in the assay with MRSA [3], the QolorAST MIC Manual (MA-MIC) is 1 µg/mL, the QolorAST MIC SVM (SVM-MIC) was 1 µg/mL and the resistance or susceptibility entry is recorded as “susceptibility”. Further, in the assay with MRSA [4], the “QolorAST colour readout over incubation” value is recorded as “consistent blue color”. Besides, in the assay on Pseudomonas aeruginosa, the “QolorAST colour readout over incubation” value was “consistent color change from blue to green”.

Consider `COc1cc(Cc2cnc(N)nc2N)cc(OC)c1OC` [Trimethoprim], for which, in the assay with E coli MG1655, the MIC is 0.312 mL⁻¹ and the “resistance profile based on the CLSI MIC cut off values” is “susceptible”.

(Values after patent US20240253033A1, “MICROFLUIDIC DETECTION SYSTEM WITH ADJUSTABLE FLOW CONTROL” (priority 2022, published 2024).)
